# From ChEMBL document CHEMBL1146357, “Antidepressant-like profile of action of two 4-amine derivatives of 10,11-dihydro-5H-dibenzo [a,d] cycloheptane in mice evaluated in the forced swimming test” (2007)
# Assays:
# Assay type in all cases: functional
# Conditions in all cases: route intraperitoneal
# Mus musculus [1] = experiment: Antidepressant activity in Swiss mouse assessed as immobility time at 15 mg/kg, ip thrice a day by 5-mins swim test
# Mus musculus [2] = experiment: Antidepressant activity in Swiss mouse assessed as immobility time at 5 mg/kg, ip thrice a day by 5-mins swim test
# Mus musculus [3] = experiment: Antidepressant activity in Swiss mouse assessed as immobility time at 50 mg/kg/day, ip after 10 days by 5-mins swim test
# Mus musculus [4] = experiment: Effect on motor co-ordination in Swiss mouse assessed as number of falls at 50 mg/kg, ip after 10 days by Rota-rod test
# Mus musculus [5] = experiment: Effect on motor co-ordination in Swiss mouse assessed as time on rotating bar at 50 mg/kg, ip after 10 days by Rota-rod test
# Mus musculus [6] = experiment: Antidepressant activity in Swiss mouse assessed as immobility time at 50 mg/kg, ip thrice a day by 5-mins swim test
# Mus musculus [7] = experiment: Antidepressant activity in Swiss mouse assessed as immobility time at 100 mg/kg, ip thrice a day by 5-mins swim test
# Mus musculus [8] = experiment: Antidepressant activity in Swiss mouse assessed as reduction in immobility time at 50 mg/kg/day, ip after 10 days by 5-mins swim test; design: scale not given: the % may be the effect or the level left
# Mus musculus [9] = experiment: Antidepressant activity in Swiss mouse assessed as immobility time at 30 mg/kg, ip thrice a day by 5-mins swim test
# Mus musculus [10] = experiment: Effect on motor co-ordination in Swiss mouse assessed as time on rotating bar at 15 mg/kg, ip after 10 days by Rota-rod test
# Mus musculus [11] = experiment: Effect on motor co-ordination in Swiss mouse assessed as number of falls at 15 mg/kg, ip after 10 days by Rota-rod test
# Mus musculus [12] = experiment: Antidepressant activity in Swiss mouse assessed as reduction in immobility time at 30 mg/kg/day, ip after 10 days by 5-mins swim test; design: scale not given: the % may be the effect or the level left
# Mus musculus [13] = experiment: Antidepressant activity in Swiss mouse assessed as immobility time at 30 mg/kg/day, ip after 10 days by 5-mins swim test
# Mus musculus [14] = experiment: Antidepressant activity in Swiss mouse assessed as immobility time at 1 mg/kg, ip thrice a day by 5-mins swim test
# Mus musculus [15] = experiment: Effect on motor co-ordination in Swiss mouse assessed as time on rotating bar at 30 mg/kg, ip after 10 days by Rota-rod test
# Mus musculus [16] = experiment: Effect on motor co-ordination in Swiss mouse assessed as number of falls at 30 mg/kg, ip after 10 days by Rota-rod test
Structure (SMILES),Time (Mus musculus [1]) [s],Time (Mus musculus [2]) [s],Time (Mus musculus [3]) [s],Activity (Mus musculus [4]),Time (Mus musculus [5]) [s],Time (Mus musculus [6]) [s],Time (Mus musculus [7]) [s],Activity (Mus musculus [8]) [%],Time (Mus musculus [9]) [s],Time (Mus musculus [10]) [s],Activity (Mus musculus [11]),Activity (Mus musculus [12]) [%],Time (Mus musculus [13]) [s],Time (Mus musculus [14]) [s],Time (Mus musculus [15]) [s],Activity (Mus musculus [16])
CN(C)CCCNc1cccc2c1C(=O)c1ccccc1CC2,187.1,220.22,190.33,0.5,59.5,132,206.38,13,169.31,,,,,,,
CN(C)CCCN1c2ccccc2CCc2ccccc21 [IMIPRAMINE],137.33,,,,,,,,,58.11,0.83,,,,,
c1ccc2c(c1)CCc1cccc3c1C2=NCCN3,186.57,197,,,,199.25,,,169.92,,,15,186.4,215,58.6,0.4
